Assay [1] deals with OVCAR 3 cells. Kind of assay: Cancer cell line proliferation assay, ATP-based cell viability (Cell Titre Glow), OVCAR 3 (CCNE1-amplified). Particulars: KYSE30 (normal CCNE1) GI50 vs. OVCAR 3 (CCNE1-amplified) GI50. Summed up: (§1)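 GI50 values, the concentrations halving cell growth, were derived from ATP-based luminescence (Cell Titre Glo) after PKMYT1 inhibitor exposure. Cells tested were OVCAR 3, an ovarian line with amplified CCNE1, and KYSE-30, which has normal CCNE1.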

Assay [2] concerns the target T1, WEE1 (Homo sapiens, UniProt P30291).
T1 construct: purchased Thermo Fisher PR7373A
In words: Selectivity versus WEE1 assay (ADP-Glo enzymatic assay). To be noted: for IC50: ADP-Glo; for PKMYT1 vs. WEE1 selectivity: fold difference in selectivity for PKMYT1 over WEE1. Format: biochemical. A digest of the protocol:
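ADP-Glo luminescent read-out after a 60-min, 26 °C kinase reaction of 15 nM WEE1 with 30 µM ATP, in HEPES pH 7.5 buffer containing MgCl2, EGTA, Brij-35 and 1% DMSO. IC50 accepted only when replicate values agree within 3-fold and curve fit r2 exceeds 0.9.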

The target in assay [3] is T2, Human PKMYT1 (Homo sapiens, UniProt Q99640).
T2 construct: Human PKMYT1 75-362 was cloned as a TEV cleavable 6xHis fusion; 6xHis (TEV cleavable) (cleaved yes); made in house; host or cells: bacterial cells
T2 sequence (Q99640 75-362): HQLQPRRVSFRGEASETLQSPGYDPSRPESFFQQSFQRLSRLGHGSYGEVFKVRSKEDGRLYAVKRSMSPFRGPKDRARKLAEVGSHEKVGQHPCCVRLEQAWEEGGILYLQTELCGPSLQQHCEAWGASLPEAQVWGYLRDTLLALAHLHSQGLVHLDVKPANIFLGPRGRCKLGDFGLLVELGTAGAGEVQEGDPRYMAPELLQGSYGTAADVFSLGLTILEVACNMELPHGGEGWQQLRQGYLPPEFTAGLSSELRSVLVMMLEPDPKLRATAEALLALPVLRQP
Kind of assay: PKMYT1 biochemical ADP-Glo enzymatic assay. Particulars: ADP-Glo. Summed up: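 IC50 values come from 10-point 3-fold series, with replicates required within 3-fold and r2 >0.9. ADP formed by PKMYT1 intrinsic ATPase (500 uM ATP, 60 min, 26° C.) was quantified by ADP-Glo luminescence. The enzyme was the TEV-cleaved kinase domain 75-362 at 15 nM, in HEPES pH 7.5 buffer.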

In assay [4] the target is T3, Cellular PKMYT1 Biomarker CDK1 pT14 (Homo sapiens, UniProt Q99640).
T3 construct: read-out CDK1 phospho-T14 immunoblot
T3 sequence (Q99640 1-499): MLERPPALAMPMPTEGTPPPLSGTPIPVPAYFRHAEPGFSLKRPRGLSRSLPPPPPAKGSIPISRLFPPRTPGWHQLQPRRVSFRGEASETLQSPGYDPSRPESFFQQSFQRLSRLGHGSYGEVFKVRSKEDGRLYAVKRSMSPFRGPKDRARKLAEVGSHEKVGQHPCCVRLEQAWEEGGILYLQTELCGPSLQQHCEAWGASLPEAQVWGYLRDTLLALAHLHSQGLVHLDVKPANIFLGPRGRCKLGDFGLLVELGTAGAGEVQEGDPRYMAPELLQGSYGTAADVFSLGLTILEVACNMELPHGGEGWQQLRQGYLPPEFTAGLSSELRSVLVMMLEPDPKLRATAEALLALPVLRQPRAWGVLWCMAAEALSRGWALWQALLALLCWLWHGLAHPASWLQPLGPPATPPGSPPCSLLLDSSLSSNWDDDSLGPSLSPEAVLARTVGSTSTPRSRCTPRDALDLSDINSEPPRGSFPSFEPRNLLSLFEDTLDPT
In words: Inhibition of cellular PKMYT1 biomarker CDK1 pT14 in OVCAR 3 cells (immunoblot). Format: cell-based. Particulars: 20 hours incubation. Here is the method:
To determine compound PKMYT1 IC50 in a cellular assay, OVCAR 3 cells were incubated at 37° C. in 5% CO2 atmosphere. The cells were maintained in RPMI medium supplemented with 20% foetal bovine serum, 1X non essential amino acids, 1 mM sodium pyruvate, Glutamax and insulin. Cells were seeded into 12-well plates at low density (50,000-200,000 cells per well), grown to confluence (~350-400,000 cells per well) and then treated with a range of concentrations of PKMYT1 inhibitors. The cells were incubated 20 hours and then harvested into 1X Laemmli Sample Buffer (BIORAD) without 2-mercaptoethanol, heated to 95° C. for 5 min, centrifuged and sonicated using a microprobe for 15 sec, 21W to shear the DNA.
The samples were analysed by immunoblot on a Jess Automated Western Blot System (BioTechne). The samples were separated using the 12-230 kDa Separation Module (BioTechne,) and blotted using an anti-CDK1 phospho T14 antibody (Abcam, #ab58509) and an anti-vinculin antibody (Abcam, #126002). Specific binding was detected by fluorescence using the Anti-Rabbit Detection Module (BioTechne, #DM-001), quantified using Compass for Simple Western software, and IC50 values were calculated by regression analysis in GraphPad Prism.

The subject of assay [5] is KYSE-30 cells. In words: Cancer cell line proliferation assay, ATP-based cell viability (Cell Titre Glow), KYSE-30 (normal CCNE1). Particulars: Homo sapiens, KYSE-30 cells (normal CCNE1), concentration that achieves 50% cell growth proliferation inhibition, read-out: KYSE30 Gl50. Summed up:
as §1

Setting [6] is: PKMYT1 kinase domain 15 nM, banded values.
[7] abbreviates: 15 nM WEE1, 60 minutes at 26° C., banded.
The mark [8] stands for this setting: banded, ">N" = at least in this band but could be higher.
Setting [9] is: 15 nM PKMYT1 kinase domain, 500 µM ATP, 60 minutes at 26° C., banded.

T1 sequence (P30291 whole entry): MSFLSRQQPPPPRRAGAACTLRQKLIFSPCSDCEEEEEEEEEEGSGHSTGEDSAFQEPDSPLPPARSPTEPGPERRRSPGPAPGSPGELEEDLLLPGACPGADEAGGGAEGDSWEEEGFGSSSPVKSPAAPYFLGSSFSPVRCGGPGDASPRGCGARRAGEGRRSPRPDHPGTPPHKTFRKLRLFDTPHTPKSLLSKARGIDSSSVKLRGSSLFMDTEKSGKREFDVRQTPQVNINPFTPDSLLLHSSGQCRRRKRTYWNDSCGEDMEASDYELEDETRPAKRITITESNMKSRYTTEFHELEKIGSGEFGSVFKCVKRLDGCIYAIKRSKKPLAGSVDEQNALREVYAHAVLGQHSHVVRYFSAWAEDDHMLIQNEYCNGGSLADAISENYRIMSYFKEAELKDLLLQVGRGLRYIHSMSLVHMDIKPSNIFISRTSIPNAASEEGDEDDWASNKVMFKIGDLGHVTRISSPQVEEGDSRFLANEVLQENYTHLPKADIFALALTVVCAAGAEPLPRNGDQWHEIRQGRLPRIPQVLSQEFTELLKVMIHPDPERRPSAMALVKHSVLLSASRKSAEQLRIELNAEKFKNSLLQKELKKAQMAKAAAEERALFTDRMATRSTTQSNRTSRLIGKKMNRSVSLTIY

Regarding `CCc1cn(CC(F)F)nc1Nc1ncc(C(=O)Nc2c(C)ccc(O)c2C)s1` [BAA-589, 2-((1-(2,2-difluoroethyl)-4-ethyl-1H-pyrazol-3-yl)amino)-N-(3-hydroxy-2,6-dimethylphenyl)thiazole-5-carboxamide], in assay [1], the “Selectivity ratio KYSE30 Gl50 vs. OVCAR3 Gl50” value was “Y (>20 fold)”. Moreover, the IC50 in assay [2] (WEE1 15 nM, banded values) is 1000 to 11000 nM; in assay [3] (setting [6]) it was less than 50 nM; in assay [4], less than 100 nM. Moreover, in assay [2] (banded), the “PKMYT1 vs. WEE1 selectivity” value is listed as “X (100-<1000 fold)”. The GI50 in assay [5] is greater than 5000 nM.
With `CCN(C(=O)Cn1cc(C)c(Nc2ncc(C(=O)Nc3c(C)ccc(O)c3C)s2)n1)C1CC1` [BAA-551, 2-((1-(2-(cyclopropyl(ethyl)amino)-2-oxoethyl)-4-methyl-1H-pyrazol-3-yl)amino)-N-(3-hydroxy-2,6-dimethylphenyl)thiazole-5-carboxamide], the “Selectivity ratio KYSE30 Gl50 vs. OVCAR3 Gl50” value in assay [1] is reported as “Y (>20 fold)”. For the same compound, the IC50 in assay [2] (WEE1 15 nM, banded values) was 1000 to 11000 nM; in assay [3] (setting [6]), less than 50 nM; in assay [4], less than 100 nM. For the same compound, the “PKMYT1 vs. WEE1 selectivity” value in assay [2] (banded) is on record as “X (100-<1000 fold)”. In assay [5], the GI50 fell in the range of 500 to 5000 nM.
For the compound `Cc1ccc(O)c(C)c1NC(=O)c1cnc(Nc2nn(CC(=O)N3CCCC3)cc2Cl)s1` [BAA-546, 2-((4-chloro-1-(2-oxo-2-(pyrrolidin-1-yl)ethyl)-1H-pyrazol-3-yl)amino)-N-(3-hydroxy-2,6-dimethylphenyl)thiazole-5-carboxamide], the “Selectivity ratio KYSE30 Gl50 vs. OVCAR3 Gl50” value in assay [1] was “Y (>20 fold)”. The IC50 in assay [2] (WEE1 15 nM, banded values) is 1000 to 11000 nM; in assay [3] (setting [6]), less than 50 nM; in assay [4], less than 100 nM. The “PKMYT1 vs. WEE1 selectivity” value in assay [2] (banded) is on record as “X (100-<1000 fold)”. Moreover, in assay [5], the GI50 was greater than 5000 nM.
Turning to `Cc1ccc(NC(=O)C(C)(C)O)nc1Nc1ncc(C(=O)Nc2c(C)ccc(O)c2C)s1.Cl` [BAA-342, N-(3-Hydroxy-2,6-dimethylphenyl)-2-((6-(2-hydroxy-2-methylpropanamido)-3-methylpyridin-2-yl)amino)thiazole-5-carboxamide hydrochloride], the “Selectivity ratio KYSE30 Gl50 vs. OVCAR3 Gl50” value in assay [1] is listed as “Y (>20 fold)”. For the same compound, the IC50 in assay [2] (setting [7]) was greater than 11000 nM; in assay [3] (setting [9]) it was less than 50 nM; in assay [4] it was less than 100 nM. Also, in assay [2] (setting [8]), the “PKMYT1 vs. WEE1 selectivity” value was “X (100-<1000 fold)”. In addition, in assay [5], the GI50 was greater than 5000 nM.
`Cc1ccc(O)c(C)c1NC(=O)c1cnc(Nc2cccc(CC(=O)N(C)C3CC3)n2)s1` [BAA-428, 2-((6-(2-(Cyclopropyl(methyl)amino)-2-oxoethyl)pyridin-2-yl)amino)-N-(3-hydroxy-2,6-dimethylphenyl)thiazole-5-carboxamide]: the “Selectivity ratio KYSE30 Gl50 vs. OVCAR3 Gl50” value in assay [1] was “Y (>20 fold)”. Besides, the IC50 is less than 50 nM in assay [3] (setting [6]) and less than 100 nM in assay [4]. For the same compound, the GI50 in assay [5] was greater than 5000 nM.
As to `Cc1ccc(O)c(C)c1NC(=O)c1cnc(Nc2nccc3cccnc23)s1` [BAA-604, 2-((1,7-naphthyridin-8-yl)amino)-N-(3-hydroxy-2,6-dimethylphenyl)thiazole-5-carboxamide], the IC50 in assay [2] (WEE1 15 nM, banded values) was greater than 11000 nM; in assay [3] (setting [6]), less than 50 nM; in assay [4], 100 to 1000 nM. The “PKMYT1 vs. WEE1 selectivity” value in assay [2] (banded) is given as “Y (1000-5000 fold)”.
The matching figures for `CCN(CC)C(=O)C(CO)n1cc(C)c(Nc2ncc(C(=O)Nc3c(C)ccc(O)c3C)s2)n1` (stereo not shown) [BAA-576, 2-((1-(1-(diethylamino)-3-hydroxy-1-oxopropan-2-yl)-4-methyl-1H-pyrazol-3-yl)amino)-N-(3-hydroxy-2,6-dimethylphenyl)thiazole-5-carboxamide]: 1000 to 11000 nM, less than 50 nM, less than 100 nM and “X (100-<1000 fold)”.
The matching figures for `Cc1ccc(O)c(C)c1NC(=O)c1cnc(Nc2cccc(F)n2)s1` [BAA-406, 2-((6-fluoropyridin-2-yl)amino)-N-(3-hydroxy-2,6-dimethylphenyl)thiazole-5-carboxamide]: 1000 to 11000 nM, less than 50 nM, less than 100 nM and “X (100-<1000 fold)”.
The matching figures for `Cc1ccc(O)c(C)c1NC(=O)c1cnc(Nc2n[nH]cc2F)s1` [BAA-593, 2-((4-Fluoro-1H-pyrazol-3-yl)amino)-N-(3-hydroxy-2,6-dimethylphenyl)thiazole-5-carboxamide]: 1000 to 11000 nM, less than 50 nM, 100 to 1000 nM and “X (100-<1000 fold)”.
As for `Cc1cn(CC(=O)N2CCCC2)nc1Nc1ncc(C(=O)Nc2c(C)cc(Cl)c(O)c2C)s1` [BAA-553, N-(4-chloro-3-hydroxy-2,6-dimethylphenyl)-2-((4-methyl-1-(2-oxo-2-(pyrrolidin-1-yl)ethyl)-1H-pyrazol-3-yl)amino) thiazole-5-carboxamide], the IC50 in assay [2] (WEE1 15 nM, banded values) was greater than 11000 nM; in assay [3] (setting [6]), 50 to 1000 nM; in assay [4], 100 to 1000 nM. Also, in assay [2] (banded), the “PKMYT1 vs. WEE1 selectivity” value is reported as “X (100-<1000 fold)”.
The matching figures for `Cc1ccc(O)c(C)c1NC(=O)c1cnc(Nc2ccn(C3CCN(C)C3=O)n2)s1` (stereo not shown) [BAA-601, N-(3-hydroxy-2,6-dimethylphenyl)-2-((1-(1-methyl-2-oxopyrrolidin-3-yl)-1H-pyrazol-3-yl)amino)thiazole-5-carboxamide]: greater than 11000 nM, less than 50 nM, 100 to 1000 nM and “X (100-<1000 fold)”.
Take `Cc1cn(CC(=O)N(C)CCC#N)nc1Nc1ncc(C(=O)Nc2c(C)ccc(O)c2C)s1` [BAA-523, 2-((1-(2-((2-cyanoethyl)(methyl)amino)-2-oxo-ethyl)-4-methyl-1H-pyrazol-3-yl)amino)-N-(3-hydroxy-2,6-dimethylphenyl)thiazole-5-carboxamide]: the IC50 in assay [2] (WEE1 15 nM, banded values) is 1000 to 11000 nM; in assay [3] (setting [6]), less than 50 nM; in assay [4], 100 to 1000 nM. Also, the “PKMYT1 vs. WEE1 selectivity” value in assay [2] (banded) was “X (100-<1000 fold)”.
For the compound `Cc1ccc(O)c(C)c1NC(=O)c1cnc(Nc2ncccc2F)s1` [BAA-411, 2-((3-fluoropyridin-2-yl)amino)-N-(3-hydroxy-2,6-dimethylphenyl)thiazole-5-carboxamide], the IC50 in assay [2] (WEE1 15 nM, banded values) is greater than 11000 nM; in assay [3] (setting [6]), less than 50 nM; in assay [4], 100 to 1000 nM. Moreover, in assay [2] (banded), the “PKMYT1 vs. WEE1 selectivity” value is on record as “Y (1000-5000 fold)”.
In the case of `Cc1cc(Nc2ncc(C(=O)Nc3c(C)ccc(O)c3C)s2)n(C2CCCC2)n1` [BAA-231, 2-((1-cyclopentyl-3-methyl-1H-pyrazol-5-yl)amino)-N-(3-hydroxy-2,6-dimethylphenyl)thiazole-5-carboxamide], the IC50 in assay [2] (setting [7]) is greater than 11000 nM; in assay [3] (setting [9]) it was 50 to 1000 nM; in assay [4] it was 100 to 1000 nM. For the same compound, the “PKMYT1 vs. WEE1 selectivity” value in assay [2] (setting [8]) is given as “Y (1000-5000 fold)”.
